SMILES	melting point [°C]
CCCC(=O)Nc1cc(S(=O)c2ccccc2)ccc1N(C(=N)NC(=O)OC)C(=O)OC (stereo not given)	134
Cc1cc(Cc2cnc(N[N+](=O)[O-])[nH]c2=O)cnc1C	212 to 213
O=C(O)CCCCSc1nc2c(F)c(F)cc(F)c2s1	56 to 58
OCCCc1cnoc1-c1ccc(C(F)(F)F)cc1	85 to 86
Cc1ccc(O[C@@H](Cc2ccc(O)cc2)C(=O)OCC[Si](C)(C)C)cc1	94 to 95
Cn1cncc1C(O)(c1ccc(I)cc1)c1ccc2c(c1)c(-c1cccc(Cl)c1)cc(=O)n2C (stereo not given)	197
CC(C)[C@H](NC(=O)OCc1ccccn1)C(=O)N[C@@H](Cc1ccccc1)C[C@H](OC=O)[C@H](Cc1ccccc1)NC(=O)[C@@H](NC(=O)OCc1ccccn1)C(C)C	206 to 207
CCCOC(=O)N(C)S(=O)(=O)c1cc([N+](=O)[O-])c(N(CCC)CCC)c([N+](=O)[O-])c1	110 to 113
Oc1ccc(CCc2nc(-c3cccs3)c[nH]2)cc1	166 to 167
COc1nc2nc(SCc3ccccc3)nn2cc1C	145 to 146
O=[N+]([O-])c1ccc2[nH]cc(Cc3cccnc3)c2c1	154 to 156
CCOC(=O)/C=C(\c1cccc(C(F)(F)F)c1)c1ccc(OC)c(OC)c1	72 to 74
Cc1nn(C)c2nc(N(CC3CCC3)CC3CC3)c(CN(Cc3cc(C(F)(F)F)cc(C(F)(F)F)c3)c3nnn(C)n3)cc12	84 to 85
Cc1cccc(-n2c(-c3sc(Nc4ccccc4)nc3C)nc3ccccc3c2=O)c1	198 to 201
NC1CC2CCCC(C1)N2Cc1ccccc1 (stereo not given)	134
COc1cc(OC)cc(-c2nc(CCl)co2)c1	85 to 86
CN(SC(Cl)(Cl)Cl)c1nc(C(Cl)(Cl)Cl)ns1	106
CCCCCCCCCCCCCCCCC(=O)n1cc(F)c(=O)[nH]c1=O	102

The next lines start with the values.

melting point [°C]	SMILES
168 to 186	CCCCNS(=O)(=O)CC(O)C(O)C(CC1CCCCC1)NC(=O)c1ccncc1 (stereo not given)
124 to 125	CCCN1C(=O)N2C[C@@H](Cc3ccccc3)N=C2c2c1nc(N1CCCC1)n2Cc1ccccc1
144 to 145	CC(C)(C)c1nc(-c2ccc(F)cc2)c(-c2ccc(S(C)(=O)=O)cc2)s1
159 to 160	COc1ccc([C@@H]2Sc3ccccc3N(CCN(C)C)C(=O)[C@@H]2OC(=O)c2cc(Cl)ccc2[N+](=O)[O-])cc1
215	CC=CC=CC(=O)n1c(N)nc2ccccc21
174	Cc1ccc(C(=O)O)nn1
127 to 129	O=C1CC(CO)(C(=O)N(Cc2ccccc2)Cc2ccccc2)CN1Cc1ccccc1 (stereo not given)
> 260	Cc1c[nH]c(=O)c2c3c([nH]c12)CCC(=O)C3
140 to 142	C#CCOC(C(=O)Nc1ccccc1-c1ccc(O)c(OC)c1)c1ccc(Cl)cc1 (stereo not given)
174 to 175	Cn1c2c(c3ccc(F)cc31)C(=O)CCC2
268 to 271	Cc1[nH]cnc1CN1CCC(N)=CC1=O
210	NC(=O)c1ccn2c1CSC2c1cccnc1 (single isomer, unassigned; (+))
222	CC(=O)N[C@@H]1CCN(S(=O)(=O)c2ccc(Cl)c(CBr)c2Cl)C1
212 to 221	CC(C)(C)OC(=O)N1CCn2c(c(C(N)=O)c(C#N)c2C2CCOCC2)C1
168 to 170	CSCc1cn(C)c2cc(Br)ccc2c1=O
128 to 129	COc1c(SC)ccc(C(=O)C(C#N)C(=O)C2CC2)c1Br (stereo not given)
135	COc1ccc2cc(-c3ccccc3)cc(CCNC(C)=O)c2c1
195 to 197	O=C(O)C(=O)Nc1coc2ccccc2c1=O
65 to 67	COc1cccc(CCCNC(=O)C2CC2)c1
40 to 43	CC(C)(C)OC(=O)NCC(Cl)c1cccs1 (stereo not given)
151 to 153	COc1ccc2c(c1)CCC([C@@H]1CC[C@H](O)[C@@]1(C)CCO)C2 (stereo not given in full)
63 to 67	O=C1c2cc(Br)ccc2CCC1Cc1cccnc1 (stereo not given)

Source: a melting point compilation (Tetko et al.; mined from patent text by program, amines drawn as free bases though some values may be those of a salt)
